Experimental findings from patent publication US11000033B2, “Ketone or oxime compound, and herbicide” (NISSAN CHEMICAL CORPORATION, priority 2014, dated 2021) are described below.

Type in all cases: in vivo
Data set [1] relates to beet. The experiment in a line: Test Example 5: effect on crop by foliage application, plastic box (symbol f). The note with it: 320 g/ha, 3 weeks after application. Summed up: (§1)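 Crop seed is sown alongside grass and broadleaf weed species in spots in sterilized diluvial soil, then covered to a depth of about 1.5 cm. Plants grow in a greenhouse kept at 25° C. to 30° C.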
The test system of data set [2] is rapeseed. Kind of data set: Test Example 5: effect on crop by foliage application, plastic box (symbol g). The note with it: 320 g/ha, 3 weeks after application. The gist of the method:
as §1

Another data set has as its system Setaria viridis. The experiment in a line: Test Example 5: herbicidal effect by foliage application, plastic box (symbol G). The following applies: 320 g/ha, 3 weeks after application. The gist of the method: (§2)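 Emulsion formulation, diluted with water to the intended rate, was applied uniformly to leaves by small sprayer. Recipients were 14-day greenhouse-grown seedlings (25° C. to 30° C.). Assessment followed at 3 weeks.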

The test system of the next data set is Amaranthus retroflexus. The experiment in a line: Test Example 4: herbicidal effect by soil treatment (symbol N). The following applies: 320 g/ha. The gist of the method: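 Seeds were sown in sterilized diluvial soil, covered with about 1.5 cm of soil, and the soil surface was sprayed with a water-diluted emulsion of the compound at a predetermined rate. Plants grew in a greenhouse at 25° C. to 30° C.; effects were scored visually 3 weeks after application.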

Another data set deals with Cyperus difformis. The experiment in a line: Test Example 3: herbicidal effect by foliage application, Wagner pot (symbol E). The following applies: application herbicide amount 320 g/ha. The gist of the method: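 Alluvial soil was flooded to a depth of 0.1–0.5 cm, seeded with the weeds and rice, and kept in a greenhouse at 25–30 °C. After 14 days of growth, the foliage received a small-sprayer application of emulsion diluted to the intended rate; injury was rated at 3 weeks.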

Another data set deals with corn. Kind of data set: Test Example 4: effect on crop by soil treatment (symbol c). The following applies: 320 g/ha. The gist of the method:
(§3)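 Crop seed is sown in spots together with several weed species in a box of sterilized diluvial soil. It is covered by about 1.5 cm of soil and kept in a greenhouse held between 25° C. and 30° C.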

A further data set has as its system wheat. Kind of data set: Test Example 5: effect on crop by foliage application, plastic box (symbol e). The following applies: 320 g/ha, 3 weeks after application. The gist of the method:
as §1

The subject of a further data set is Galium spurium. Kind of data set: Test Example 5: herbicidal effect by foliage application, plastic box (symbol Q). The following applies: 320 g/ha, 3 weeks after application. The gist of the method: as §2
The test system of a further data set is Scirpus juncoides. The experiment in a line: Test Example 1: herbicidal activity, application before weed generation in submerged conditions (symbol B). The following applies: application herbicide amount 320 g/ha. Summed up: (§4)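 Steps: alluvial soil flooded to 4 cm; weed seeds sown together; rice seedlings (2.5 leaf) transplanted; diluted emulsion applied to water surface the same day as sowing; plants grown at 25–30 °C in greenhouse; herbicidal effect rated on a 0–5 scale at 3 weeks.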

In the next data set the test system is Apera spica-venti. The experiment in a line: Test Example 5: herbicidal effect by foliage application, plastic box (symbol L). The note with it: 320 g/ha, 3 weeks after application. Summed up: as §2
Data set [3] deals with rapeseed. The experiment in a line: Test Example 4: effect on crop by soil treatment (symbol g). The following applies: 320 g/ha. The gist of the method: as §3
In the next data set the test system is Monochoria vaginalis. Kind of data set: Test Example 1: herbicidal activity, application before weed generation in submerged conditions (symbol C). The note with it: application herbicide amount 320 g/ha. The gist of the method:
as §4

The next data set has as its system Lolium multiflorum Lam. The experiment in a line: Test Example 5: herbicidal effect by foliage application, plastic box (symbol K). The note with it: 320 g/ha, 3 weeks after application. The gist of the method: as §2
For data set [4], the system named is beet. Kind of data set: Test Example 4: effect on crop by soil treatment (symbol f). The following applies: 320 g/ha. Summed up:
as §3

`CC(CC1CC(O)=C(c2c(C)cc(C)cc2C)C1=O)=NOCc1ccccc1[N+](=O)[O-]` (stereo not shown) [1-119]: the “f: beet, effect on crop (criteria 0-5)” value in the data set with beet [1] was 0 (Herbicidal ratio of 5% or lower (almost no effect)). Also, in the data set with rapeseed [2], the “g: rapeseed, effect on crop (criteria 0-5)” value is 5 (Herbicidal ratio of 90% or more (almost completely withered)). The “G: Setaria viridis, herbicidal effect (criteria 0-5)” value in the data set on Setaria viridis was 5 (Herbicidal ratio of 90% or more (almost completely withered)). For the same compound, the “N: Amaranthus retroflexus, herbicidal effect grade” value in the data set on Amaranthus retroflexus is reported as 0 (Herbicidal ratio of 5% or lower (almost no effect)). Besides, the “herbicidal effect on E, grade 0-5” value in the data set with Cyperus difformis is recorded as 0 (Herbicidal ratio of 5% or lower (almost no effect)). Besides, the “c: corn, effect grade on crop” value in the data set with corn is on record as 0 (Herbicidal ratio of 5% or lower (almost no effect)). The “e: wheat, effect on crop (criteria 0-5)” value in the data set with wheat is 4 (Herbicidal ratio of 70% or higher and lower than 90%). In the data set with Galium spurium, the “Q: Galium spurium, herbicidal effect (criteria 0-5)” value is 0 (Herbicidal ratio of 5% or lower (almost no effect)). Moreover, in the data set on Scirpus juncoides, the “Herbicidal effect grade, B: Scirpus juncoides” value is reported as 0 (Herbicidal ratio of 5% or lower (almost no effect)). In addition, the “L: Apera spica-venti, herbicidal effect (criteria 0-5)” value in the data set on Apera spica-venti is 5 (Herbicidal ratio of 90% or more (almost completely withered)). Moreover, the “g: rapeseed, effect grade on crop” value in the data set on rapeseed [3] was 3 (Herbicidal ratio of 40% or higher and lower than 70%). In the data set on Monochoria vaginalis, the “Herbicidal effect grade, C: Monochoria vaginalis” value was 0 (Herbicidal ratio of 5% or lower (almost no effect)). In addition, the “K: Lolium multiflorum Lam., herbicidal effect (criteria 0-5)” value in the data set with Lolium multiflorum Lam. is recorded as 5 (Herbicidal ratio of 90% or more (almost completely withered)). For the same compound, in the data set with beet [4], the “f: beet, effect grade on crop” value is recorded as 0 (Herbicidal ratio of 5% or lower (almost no effect)).
For `CC(CC1CC(O)=C(c2c(C)cc(C)cc2C)C1=O)=NOCC(C)Cl` (stereo not shown) [1-121], the “f: beet, effect on crop (criteria 0-5)” value in the data set with beet [1] is reported as 0 (Herbicidal ratio of 5% or lower (almost no effect)). Further, in the data set with rapeseed [2], the “g: rapeseed, effect on crop (criteria 0-5)” value is given as 5 (Herbicidal ratio of 90% or more (almost completely withered)). In the data set on Setaria viridis, the “G: Setaria viridis, herbicidal effect (criteria 0-5)” value is 5 (Herbicidal ratio of 90% or more (almost completely withered)). Also, the “N: Amaranthus retroflexus, herbicidal effect grade” value with Amaranthus retroflexus is given as 0 (Herbicidal ratio of 5% or lower (almost no effect)). In addition, in the data set with Cyperus difformis, the “herbicidal effect on E, grade 0-5” value is 4 (Herbicidal ratio of 70% or higher and lower than 90%). Besides, the “c: corn, effect grade on crop” value with corn was 1 (Herbicidal ratio of 5% or higher and lower than 20%). For the same compound, the “e: wheat, effect on crop (criteria 0-5)” value in the data set on wheat was 3 (Herbicidal ratio of 40% or higher and lower than 70%). The “Q: Galium spurium, herbicidal effect (criteria 0-5)” value in the data set with Galium spurium is listed as 0 (Herbicidal ratio of 5% or lower (almost no effect)). Further, the “Herbicidal effect grade, B: Scirpus juncoides” value in the data set on Scirpus juncoides was 5 (Herbicidal ratio of 90% or more (almost completely withered)). In addition, the “L: Apera spica-venti, herbicidal effect (criteria 0-5)” value in the data set with Apera spica-venti is 5 (Herbicidal ratio of 90% or more (almost completely withered)). Moreover, in the data set on rapeseed [3], the “g: rapeseed, effect grade on crop” value is 3 (Herbicidal ratio of 40% or higher and lower than 70%). Moreover, the “Herbicidal effect grade, C: Monochoria vaginalis” value with Monochoria vaginalis was 3 (Herbicidal ratio of 40% or higher and lower than 70%). In the data set with Lolium multiflorum Lam., the “K: Lolium multiflorum Lam., herbicidal effect (criteria 0-5)” value is on record as 5 (Herbicidal ratio of 90% or more (almost completely withered)). Further, in the data set with beet [4], the “f: beet, effect grade on crop” value was 0 (Herbicidal ratio of 5% or lower (almost no effect)).
